Data taken from US6743929B1, “Sulfonylalkanoylamino hydroxyethylamino sulfonamides useful as retroviral protease inhibitors” (G. D. Searle & Co., priority 1992, dated 2004).
Like-named read-outs stand apart in the source and are kept apart here.

Columns and labels:
[1] = system: HIV-1; assay: CEM cell assay: HIV inhibition in acutely infected cells (MTT); format: cell-based; details: Human immunodeficiency virus 1, CCRF-CEM, 168 h
Description: The effectiveness of compounds of the present invention were determined in a CEM cell assay.
(§1) The HIV inhibition assay method of acutely infected cells is an automated tetrazolium based calorimetric assay essentially that reported by Pauwles et al, J. Virol. Methods, 20, 309-321 (1988). Assays were performed in 96-well tissue culture plates. CEM cells, a CD4+ cell line, were grown in RPMI-1640 medium (Gibco) supplemented with a 10% fetal calf serum and were then treated with polybrene (2 μg/ml). An 80 μl volume of medium containing 1×10^4 cells was dispensed into each well of the tissue culture plate. To each well was added a 100 μl volume of tesc compound dissolved in tissue culture medium (or medium without test compound as a control) to achieve the desired final concentration and the cells were incubated at 37° C. for 1 hour. A frozen culture of HIV-1 was diluted in culture medium to a concentration of 5×10^4 TCID50 per ml (TCID50=the dose of virus that infects 50% of cells in tissue culture), and a 20 μL volume of the virus sample (containing 1000 TCID50 of virus) was added to wells containing test compound and to wells containing only medium (infected control cells). Several wells received culture medium without virus (uninfected control cells). Likewise, the intrinsic toxicity of the test compound was determined by adding medium without virus to several wells containing test compound. In summary, the tissue culture plates contained the following experiments:
(§2) In experiments 2 and 4 the final concentrations of test compounds were 1, 10, 100 and 500 μg/ml. Either azidothymidine (AZT) or dideoxyinosine (ddI) was included as a positive drug control. […] DMSO was added to all control wells at an appropriate concentration.
(§3) Following the addition of virus, cells were incubated at 37° C. in a humidified, 5% CO2 atmosphere for 7 days. Test compounds could be added on days 0, 2 and 5 if desired. On day 7, post-infection, the cells in each well were resuspended and a 100 μl sample of each cell suspension was removed for assay. A 20 μL volume of a 5 mg/ml solution of 3-(4,5-dimethylthiazol-2-yl)-2,5-diphenyltetrazolium bromide (MTT) was added to each 100 μL cell suspension, and the cells were incubated for 4 hours at […] in a 5% CO2 environment. […] To each sample was added 100 μl of 10% sodium dodecylsulfate in 0.01 N HCl to lyse the cells, and samples were incubated overnight. The absorbance at 590 nm was determined for each sample using a Molecular Devices microplate reader. Absorbance values for each set of wells is compared to assess viral control infection, uninfected control cell response as well as test compound by cytotoxicity and antiviral efficacy.

[2] = molecular target: T1, HIV protease (Human immunodeficiency virus type 1 group M subtype B, UniProt P04585); assay: HIV protease enzyme assay (fluorogenic substrate 2-aminobenzoyl-Ile-Nle-Phe(p-NO2)-Gln-ArgNH2); format: biochemical
T1 construct: HIV protease is diluted in the assay buffer to a final enzyme concentration of 12.3 nanomolar, based on a molecular weight of 10,780
Description: The compounds of the present invention are effective HIV protease inhibitors. Utilizing an enzyme assay as described below, the compounds set forth in the examples herein disclosed inhibited the HIV enzyme. The preferred compounds of the present invention and their calculated IC50 (inhibiting concentration 50%, i.e., the concentration at which the inhibitor compound reduces enzyme activity by 50%) values are sh6wn in Table 16. The enzyme method is described below. The substrate is 2-aminobenzoyl-Ile-Nle-Phe(p-NO2)-Gln-ArgNH2. The positive control is MVT-101 (Miller, M. et al, Science, 246, 1149 (1989)] The assay conditions are as follows:
The above described substrate is dissolved in DMSO, then diluted 10 fold in assay buffer. Final substrate concentration in the assay is 80 μM.
HIV protease is diluted in the assay buffer to a final enzyme concentration of 12.3 nanomolar, based on a molecular weight of 10,780.
The final concentration of DMSO is 14% and the final concentration of glycerol is 18%. The test compound is dissolved in DMSO and diluted in DMSO to 10×the test concentration; 10 μl of the enzyme preparation is added, the materials mixed and then the mixture is incubated at ambient temperature for 15 minutes. The enzyme reaction is initiated by the addition of 40 μl of substrate. The increase in fluorescence is monitored at 4 time points (0, 8, 16 and 24 minutes) at ambient temperature. Each assay is carried out in duplicate wells.

[3] = system: CEM cells; assay: CEM cell assay: intrinsic toxicity of test compound in uninfected cells (MTT); format: cell-based; details: Table 10, CEM cells without virus, 7 days
Description: as §1, §2, §3

[4] = Table 10, CEM cells infected with HIV-1, 7 days, MTT, read-out: EC50

SMILES | EC50 [1, 4] | IC50 [2] | TD50 (nM) [3] | EC50 [1]
COc1ccc(S(=O)(=O)N(CC(C)C)C[C@@H](O)[C@H](Cc2ccccc2)NC(=O)[C@H](C)CS(C)(=O)=O)cc1 (relative stereo) [Example 7, propanamide, N-[2-Hydroxy-3-[(2-methylpropyl)(4-methoxyphenylsulfonyl)amino]-1-(phenylmethyl)propyl]-2-methyl-3-(methylsulfonyl)-,[1S-[1R*(R*),2S*]]-] | 2 nM | 1.9 nM | >1,000,000 nM | 
CC(C)CCN(C[C@@H](O)[C@H](Cc1ccccc1)NC(=O)[C@H](C)CS(C)(=O)=O)S(=O)(=O)c1ccc(N)cc1 (relative stereo) [Example 11, Propanamide, N-[2-Hydroxy-3-[(3-methylbutyl)(4-aminophenylsulfonyl)amino]-1-(phenylmethyl)propyl]-2-methyl-3-(methylsulfonyl)-,[1S-[1R*(R*),2S*]]-] | 45 nM | 7.8 nM | 170,000 nM | 
CCCCN(C[C@@H](O)[C@H](Cc1ccccc1)NC(=O)[C@H](C)CS(C)(=O)=O)S(=O)(=O)c1ccc(OC)cc1 (relative stereo) [Example 8, Propanamide, N-[2-Hydroxy-3-[(butyl)(4-methoxyphenylsulfonyl)amino]-1-(phenylmethyl)propyl]-2-methyl-3-(methylsulfonyl)-,[1S-[1R*(R*),2S*]]-] | 9 nM | 3.1 nM | >1,000,000 nM | 
CCCCN(C[C@@H](O)[C@H](Cc1ccccc1)NC(=O)[C@H](C)CS(C)(=O)=O)S(=O)(=O)c1ccccc1 (relative stereo) [Example 6, Propanamide, N-[2-Hydroxy-3-(butyl)(phenylsulfonyl)amino]-1-(phenylmethyl)propyl]-2-methyl-3-(methylsulfonyl)-. [1S-[1R*(R*),2S*]]-] | 29 nM | 8.8 nM | 133,000 nM | 
CCCN(C[C@@H](O)[C@H](Cc1ccccc1)NC(=O)[C@H](C)CS(C)(=O)=O)S(=O)(=O)c1ccccc1 (relative stereo) [Example 5, Propanamide, N-[2-Hydroxy-3-(propyl)(phenylsulfonyl)amino]-1-(phenylmethyl)propyl]-2-methyl-3-(methylsulfonyl)-, [1S-[1R* (R*), 2S*]]-] | 25 nM | 13 nM | 438,000 nM | 
CC(=O)Nc1ccc(S(=O)(=O)N(CC(C)C)C[C@@H](O)[C@H](Cc2ccccc2)NC(=O)[C@H](C)CS(C)(=O)=O)cc1 (relative stereo) [Example 10, Propanamide, N-[2-Hydroxy-3-[(2-methylpropyl)(4-acetamido)phenylsulfonyl)amino]-1-(phenylmethyl)propyl]-2-methyl-3-(methylsulfonyl)-,[1S-[1R*(R*),2S*]]-] |  |  | 860,000 nM | 223 nM
CCCN(C[C@@H](O)[C@H](Cc1ccccc1)NC(=O)[C@H](C)CS(C)(=O)=O)S(=O)(=O)c1ccc(OC)cc1 (relative stereo) [Example 9, propanamide, N-[2-Hydroxy-3-[(propyl)(4-methoxyphenylsulfonyl)amino]-1-(phenylmethyl)propyl]-2-methyl-3-(methylsulfonyl)-,[1S-[1R*(R*),2S*]]-] | 16 nM | 4.1 nM | >1,000,000 nM | 
CC(C)CN(C[C@@H](O)[C@H](Cc1ccccc1)NC(=O)[C@H](C)CS(C)(=O)=O)S(=O)(=O)c1ccccc1 (relative stereo) [Example 3, Propanamide, N-[2-Hydroxy-3-[(2-methylpropyl)(phenylsulfonyl)amino]-1-(phenylmethyl)propyl]-2-methyl-3-(methylsulfonyl)-, [1S-[1R*(R*),2S*]]-] | 10 nM | 3.2 nM | 213,000 nM | 
COc1ccc(S(=O)(=O)N(CCC(C)C)C[C@@H](O)[C@H](Cc2ccccc2)NC(=O)[C@H](C)CS(C)(=O)=O)cc1 (relative stereo) [Example 2, Propanamide, N-[2-Hydroxy-3-[(3-methylbutyl)(4-methoxyphenylsulfonyl)aminol-1-(phenylmethyl)propyl]-2-methyl-3-(methylsulfonyl)-[1S-[1R*(R*),2S*]]-] | 12 nM | 3.2 nM | 90,000 nM | 
COc1ccc(S(=O)(=O)N(CC(C)C)C[C@@H](O)[C@H](Cc2ccccc2)NC(=O)[C@H](C)CS(C)(=O)=O)cc1OC (relative stereo) [Example 12, Propanamide, N-[2-Hydroxy-3-[(2-methylpropyl)(3.4-dimethoxyphenylsulfonyl)amino]-1-(phenylmethyl)propyl]-2-methyl-3-(methylsulfonyl)-,[1S-[1R*(R*),2S*]]-] | 87 nM | 38 nM | 77,000 nM | 
CC(C)CCN(C[C@@H](O)[C@H](Cc1ccccc1)NC(=O)[C@H](C)CS(C)(=O)=O)S(=O)(=O)c1ccccc1 (relative stereo) [Example 4, Propanamide, N-[2-Hydroxy-3-[(3-methylbutyl)(phenylsulfonyl)amino]-1-(phenylmethyl)propyl]-2-methyl-3-(methylsulfonyl)-. [1S-[1R*(R*), 2S*]]-] | 12 nM | 3 nM | >1,000,000 nM | 
